Experiments:
Type in all cases: cell-based
MCHR1 I366(7.39)A = target: T1, MCHR1 I366(7.39)A (Homo sapiens, UniProt Q99705, I297A); assay: GloSensor cAMP assay, MCHR1 I366A; conditions: HEK293, mean ± S.E.M., n = 3 in triplicate
T1 construct: expressed in transfected cells; host or cells: HEK293
Text: (§1) The gene sequences encoding human MCHR1 (residues 70‒405) and MCHR2 (residues 1‒331, with L256^6.40Y mutation) were subcloned into pFastBac vector (Invitrogen) with an N-terminal haemagglutinin signal peptide (HA) and a thermostabilized BRIL fusion, followed by a C-terminal 15-amino acid linker, a LgBiT subunit and two MBPs to facilitate receptor expression and stability. The Gαi construct was designed with dominant-negative mutations S47N, G203A, A326S, and E245A to decrease the affinity of nucleotide-binding and stable Gαβγ complex. The mini-Gαq construct was designed with the C-terminal α-helix (αH5) of Gαq, which is critical for G protein coupling selectivity. The core of the construct, known as the Ras domain, is derived from Gαs. This design choice was made to enable the binding of the nanobody Nb35, which stabilizes the complex for cryo-EM analysis. […] Rat Gβ1 was constructed with a N-terminal 16× His-tag for purification and a C-terminal HiBiT to form a NanoBiT with LgBiT. […] The wild-type and mutants of MCHR1 and MCHR2 were constructed into the pcDNA6.0 vector […] for functional assays.
(§2) GloSensor cAMP assay was used to detect the downstream Gαi signal of MCHR1 using GloSensor cAMP Reagent (Promega).

MCHR2 Y267(6.51)A = target: T2, MCHR2 Y267(6.51)A (Homo sapiens, UniProt Q969V1, Y267A); assay: IP-One IP1 accumulation assay, MCHR2 Y267A; conditions: n = 3 in triplicate
T2 construct: expressed in transfected cells; host or cells: AD293
T2 sequence (Q969V1 whole entry Y267A): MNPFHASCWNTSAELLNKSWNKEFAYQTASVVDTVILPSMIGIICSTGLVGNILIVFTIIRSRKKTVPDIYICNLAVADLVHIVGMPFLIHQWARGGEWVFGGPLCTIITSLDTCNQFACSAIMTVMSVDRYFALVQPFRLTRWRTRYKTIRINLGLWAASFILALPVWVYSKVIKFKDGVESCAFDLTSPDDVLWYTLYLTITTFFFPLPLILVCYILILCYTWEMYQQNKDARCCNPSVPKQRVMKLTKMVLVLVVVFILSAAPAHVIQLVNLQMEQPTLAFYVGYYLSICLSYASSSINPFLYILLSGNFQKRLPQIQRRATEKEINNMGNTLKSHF
Text: (§3) The gene sequences encoding human MCHR1 (residues 70‒405) and MCHR2 (residues 1‒331, with L256^6.40Y mutation) were subcloned into pFastBac vector (Invitrogen) with an N-terminal haemagglutinin signal peptide (HA) and a thermostabilized BRIL fusion, followed by a C-terminal 15-amino acid linker, a LgBiT subunit and two MBPs to facilitate receptor expression and stability. The Gαi construct was designed with dominant-negative mutations S47N, G203A, A326S, and E245A to decrease the affinity of nucleotide-binding and stable Gαβγ complex. The mini-Gαq construct was designed with the C-terminal α-helix (αH5) of Gαq, which is critical for G protein coupling selectivity. The core of the construct, known as the Ras domain, is derived from Gαs. This design choice was made to enable the binding of the nanobody Nb35, which stabilizes the complex for cryo-EM analysis. […]
(§4) IP1 accumulation assay was applied for the detection of the downstream Gαq signal of MCHR2 using the IP-One HTRF kit (Cisbio). […] Before measurement, the samples were incubated at RT for 30 min and measured with EnVision multi-plate reader (PerkinElmer).
(§5) Concentration–response curves were evaluated with a three-parameter logistic equation. The significance was determined with one-way ANOVA with Tukey’s test, and P < 0.05 vs wild type was considered statistically significant.

MCHR2 A185(45.51)F = target: T3, MCHR2 A185(45.51)F (Homo sapiens, UniProt Q969V1, A185F); assay: IP-One IP1 accumulation assay, MCHR2 A185F; conditions: n = 3 in triplicate
T3 construct: expressed in transfected cells; host or cells: AD293
T3 sequence (Q969V1 whole entry A185F): as the sequence (Q969V1 whole entry Y267A) above, with A185F, A267Y counted along it
Text: as §3, §4, §5

MCHR2 D113(3.32)A = target: T4, MCHR2 D113(3.32)A (Homo sapiens, UniProt Q969V1, D113A); assay: IP-One IP1 accumulation assay, MCHR2 D113A; conditions: n = 3 in triplicate
T4 construct: expressed in transfected cells; host or cells: AD293
T4 sequence (Q969V1 whole entry D113A): as the sequence (Q969V1 whole entry Y267A) above, with D113A, A267Y counted along it
Text: as §3, §4, §5

MCHR1 Y341(6.51)A = target: T5, MCHR1 Y341(6.51)A (Homo sapiens, UniProt Q99705, Y272A); assay: GloSensor cAMP assay, MCHR1 Y341A; conditions: HEK293, mean ± S.E.M., n = 3 in triplicate
T5 construct: expressed in transfected cells; host or cells: HEK293
T5 sequence (Q99705 whole entry Y272A): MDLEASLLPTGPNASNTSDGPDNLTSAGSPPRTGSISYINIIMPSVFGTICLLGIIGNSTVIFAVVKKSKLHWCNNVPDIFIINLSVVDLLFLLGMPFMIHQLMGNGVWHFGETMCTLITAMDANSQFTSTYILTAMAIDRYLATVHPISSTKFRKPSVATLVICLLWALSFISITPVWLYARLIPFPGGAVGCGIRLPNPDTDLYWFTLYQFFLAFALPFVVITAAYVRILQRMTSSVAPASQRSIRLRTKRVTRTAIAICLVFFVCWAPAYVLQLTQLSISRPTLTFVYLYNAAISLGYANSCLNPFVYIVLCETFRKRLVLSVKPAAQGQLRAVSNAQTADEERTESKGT
Text: as §1, §2

MCHR1 F161(2.53)A = target: T6, MCHR1 F161(2.53)A (Homo sapiens, UniProt Q99705, F92A); assay: GloSensor cAMP assay, MCHR1 F161A; conditions: HEK293, mean ± S.E.M., n = 3 in triplicate
T6 construct: expressed in transfected cells; host or cells: HEK293
T6 sequence (Q99705 whole entry F92A): as the sequence (Q99705 whole entry Y272A) above, with F92A, A272Y counted along it
Text: as §1, §2

MCHR1 F256(ECL2)A = target: T7, MCHR1 F256(ECL2)A (Homo sapiens, UniProt Q99705, F187A); assay: GloSensor cAMP assay, MCHR1 F256A; conditions: HEK293, mean ± S.E.M., n = 3 in triplicate
T7 construct: expressed in transfected cells; host or cells: HEK293
T7 sequence (Q99705 whole entry F187A): as the sequence (Q99705 whole entry Y272A) above, with F187A, A272Y counted along it
Text: as §1, §2

MCHR2 Q271(6.55)A = target: T8, MCHR2 Q271(6.55)A (Homo sapiens, UniProt Q969V1, Q271A); assay: IP-One IP1 accumulation assay, MCHR2 Q271A; conditions: n = 3 in triplicate
T8 construct: expressed in transfected cells; host or cells: AD293
T8 sequence (Q969V1 whole entry Q271A): as the sequence (Q969V1 whole entry Y267A) above, with A267Y, Q271A counted along it
Text: as §3, §4, §5

MCHR1 Y362(7.35)A = target: T9, MCHR1 Y362(7.35)A (Homo sapiens, UniProt Q99705, Y293A); assay: GloSensor cAMP assay, MCHR1 Y362A; conditions: HEK293, mean ± S.E.M., n = 3 in triplicate
T9 construct: expressed in transfected cells; host or cells: HEK293
T9 sequence (Q99705 whole entry Y293A): as the sequence (Q99705 whole entry Y272A) above, with A272Y, Y293A counted along it
Text: as §1, §2

MCHR2 WT = target: T10, MCHR2 WT (Homo sapiens, UniProt Q969V1); assay: IP-One IP1 accumulation assay, MCHR2 WT (Gαq); conditions: AD293, IP-One HTRF, mean ± S.E.M.
T10 construct: expressed in transfected cells; host or cells: AD293
T10 sequence (Q969V1 whole entry): as the sequence (Q969V1 whole entry Y267A) above, with A267Y counted along it
Text: as §3, §4, §5

MCHR2 S295(7.42)A = target: T11, MCHR2 S295(7.42)A (Homo sapiens, UniProt Q969V1, S295A); assay: IP-One IP1 accumulation assay, MCHR2 S295A; conditions: n = 3 in triplicate
T11 construct: expressed in transfected cells; host or cells: AD293
T11 sequence (Q969V1 whole entry S295A): as the sequence (Q969V1 whole entry Y267A) above, with A267Y, S295A counted along it
Text: as §3, §4, §5

MCHR2 L188(ECL2)A = target: T12, MCHR2 L188(ECL2)A (Homo sapiens, UniProt Q969V1, L188A); assay: IP-One IP1 accumulation assay, MCHR2 L188A; conditions: AD293, mean ± S.E.M., n = 3 in triplicate
T12 construct: expressed in transfected cells; host or cells: AD293
T12 sequence (Q969V1 whole entry L188A): as the sequence (Q969V1 whole entry Y267A) above, with L188A, A267Y counted along it
Text: as §3, §4, §5

MCHR2 Y285(7.32)A = target: T13, MCHR2 Y285(7.32)A (Homo sapiens, UniProt Q969V1, Y285A); assay: IP-One IP1 accumulation assay, MCHR2 Y285A; conditions: AD293, mean ± S.E.M., n = 3 in triplicate
T13 construct: expressed in transfected cells; host or cells: AD293
T13 sequence (Q969V1 whole entry Y285A): as the sequence (Q969V1 whole entry Y267A) above, with A267Y, Y285A counted along it
Text: as §3, §4, §5

MCHR2 S183(ECL2)A = target: T14, MCHR2 S183(ECL2)A (Homo sapiens, UniProt Q969V1, S183A); assay: IP-One IP1 accumulation assay, MCHR2 S183A; conditions: AD293, mean ± S.E.M., n = 3 in triplicate
T14 construct: expressed in transfected cells; host or cells: AD293
T14 sequence (Q969V1 whole entry S183A): as the sequence (Q969V1 whole entry Y267A) above, with S183A, A267Y counted along it
Text: as §3, §4, §5

MCHR2 F177(ECL2)A = target: T15, MCHR2 F177(ECL2)A (Homo sapiens, UniProt Q969V1, F177A); assay: IP-One IP1 accumulation assay, MCHR2 F177A; conditions: n = 3 in triplicate
T15 construct: expressed in transfected cells; host or cells: AD293
T15 sequence (Q969V1 whole entry F177A): as the sequence (Q969V1 whole entry Y267A) above, with F177A, A267Y counted along it
Text: as §3, §4, §5

MCHR2 P280(ECL3)A = target: T16, MCHR2 P280(ECL3)A (Homo sapiens, UniProt Q969V1, P280A); assay: IP-One IP1 accumulation assay, MCHR2 P280A; conditions: n = 3 in triplicate
T16 construct: expressed in transfected cells; host or cells: AD293
T16 sequence (Q969V1 whole entry P280A): as the sequence (Q969V1 whole entry Y267A) above, with A267Y, P280A counted along it
Text: as §3, §4, §5

MCHR2 L89(2.60)A = target: T17, MCHR2 L89(2.60)A (Homo sapiens, UniProt Q969V1, L89A); assay: IP-One IP1 accumulation assay, MCHR2 L89A; conditions: n = 3 in triplicate
T17 construct: expressed in transfected cells; host or cells: AD293
T17 sequence (Q969V1 whole entry L89A): as the sequence (Q969V1 whole entry Y267A) above, with L89A, A267Y counted along it
Text: as §3, §4, §5

MCHR1 I265(45.52)A = target: T18, MCHR1 I265(45.52)A (Homo sapiens, UniProt Q99705, I196A); assay: GloSensor cAMP assay, MCHR1 I265A; conditions: HEK293, mean ± S.E.M., n = 3 in triplicate
T18 construct: expressed in transfected cells; host or cells: HEK293
T18 sequence (Q99705 whole entry I196A): as the sequence (Q99705 whole entry Y272A) above, with I196A, A272Y counted along it
Text: as §1, §2

MCHR1 P354(ECL3)A = target: T19, MCHR1 P354(ECL3)A (Homo sapiens, UniProt Q99705, P285A); assay: GloSensor cAMP assay, MCHR1 P354A; conditions: HEK293, mean ± S.E.M., n = 3 in triplicate
T19 construct: expressed in transfected cells; host or cells: HEK293
T19 sequence (Q99705 whole entry P285A): as the sequence (Q99705 whole entry Y272A) above, with A272Y, P285A counted along it
Text: as §1, §2

[1] = AD293, IP-One HTRF, 37 °C 1 h, mean ± S.E.M., P < 0.0001 vs WT

T1 sequence (Q99705 whole entry I297A): as the sequence (Q99705 whole entry Y272A) above, with A272Y, I297A counted along it

## CSCC[C@@H]1NC(=O)[C@@H](NC(=O)[C@H](CCCNC(=N)N)NC(=O)[C@H](CC(C)C)NC(=O)[C@H](CCSC)NC(=O)[C@H](CC(=O)O)NC(=O)[C@H](Cc2ccccc2)NC(=O)[C@@H](N)CC(=O)O)CSSC[C@@H](C(=O)N[C@@H](Cc2c[nH]c3ccccc23)C(=O)N[C@@H](CCC(N)=O)C(=O)N[C@H](C(=O)O)C(C)C)NC(=O)[C@@H]2CCCN2C(=O)[C@H](CCCNC(=N)N)NC(=O)[C@H](Cc2ccc(O)cc2)NC(=O)[C@H](C(C)C)NC(=O)[C@H](CCCNC(=N)N)NC(=O)CNC(=O)[C@H](CC(C)C)NC1=O [MCH, Melanin-concentrating hormone]
MCHR1 I366(7.39)A
  Emax: 90 ± 5%
MCHR2 Y267(6.51)A; [1]
  EC50: 200 nM
MCHR2 Y267(6.51)A; AD293, mean ± S.E.M.
  Emax: 92 ± 1%
MCHR2 A185(45.51)F; [1]
  EC50: 12.6 µM
MCHR2 A185(45.51)F; AD293, mean ± S.E.M.
  Emax: 96 ± 1%
MCHR2 D113(3.32)A; [1]
  EC50: 2040 nM
MCHR2 D113(3.32)A; AD293, mean ± S.E.M.
  Emax: 101 ± 2%
MCHR1 Y341(6.51)A
  Emax: 97 ± 1%
MCHR1 F161(2.53)A
  Emax: 124 ± 1%
MCHR1 F256(ECL2)A
  Emax: 106 ± 2%
MCHR2 Q271(6.55)A; [1]
  EC50: 27.5 nM
MCHR2 Q271(6.55)A; AD293, mean ± S.E.M.
  Emax: 101 ± 1%
MCHR1 Y362(7.35)A
  Emax: 95%
MCHR2 WT; 37 °C 1 h, three independent experiments in triplicate
  EC50: 3.16 nM
MCHR2 WT; normalized by WT receptor, n = 3 in triplicate
  Emax: 100%
MCHR2 S295(7.42)A; [1]
  EC50: 234 nM
MCHR2 S295(7.42)A; AD293, mean ± S.E.M.
  Emax: 81 ± 2%
MCHR2 L188(ECL2)A
  Emax: 101 ± 1%
MCHR2 Y285(7.32)A
  Emax: 92 ± 2%
MCHR2 S183(ECL2)A
  Emax: 95 ± 1%
MCHR2 F177(ECL2)A; [1]
  EC50: 3.98 µM
MCHR2 F177(ECL2)A; AD293, mean ± S.E.M.
  Emax: 97 ± 2%
MCHR2 P280(ECL3)A; [1]
  EC50: 182 nM
MCHR2 P280(ECL3)A; AD293, mean ± S.E.M.
  Emax: 90 ± 2%
MCHR2 L89(2.60)A; AD293, IP-One HTRF, 37 °C 1 h, mean ± S.E.M., P 0.1322 vs WT
  EC50: 9.12 nM
MCHR2 L89(2.60)A; AD293, mean ± S.E.M.
  Emax: 104 ± 2%
MCHR1 I265(45.52)A
  Emax: 88 ± 3%
MCHR1 P354(ECL3)A
  Emax: 109 ± 1%

Source: PMC11074101 (Cell Discovery, 2024)
